Literature values in patent US20060099230A1, “Novel formulations of eprosartan with enhanced bioavailability” (priority 2004, published 2006).
Counter-ions that a name gives are not always drawn.

Details: for bioavailability (mean absolute / oral): conventional formulation, dose not stated

## CCCCc1ncc(/C=C(\Cc2cccs2)C(=O)O)n1Cc1ccc(C(=O)O)cc1 [eprosartan, (E)-α-[2-n-butyl-1-[(4-carboxyphenyl)methyl]-1H-imidazol-5-yl]methylene-2-thiophenepropionic acid]
Administered with food
  effect of food on absorption: delays absorption
Chronic use
  accumulation: does not significantly accumulate
Following a 300 mg oral dose
  absolute bioavailability: approximately 13%
  bioavailability (mean absolute / oral): 13%
Over the 100 mg to 800 mg dose range
  dose proportionality of plasma concentrations: slightly less than dose-proportional

## CCCCc1ncc(/C=C(\Cc2cccs2)C(=O)O)n1Cc1ccc(C(=O)O)cc1 [eprosartan mesylate]
  bioavailability (mean absolute / oral): 13%
